From patent US12643867B2, “Compositions and uses thereof” (University of Virginia Patent Foundation, priority 2017, dated 2026)

Experiments:
[1] = target: T1, DGKE (Diacylglycerol kinase epsilon) (Homo sapiens, UniProt P52429); assay: SILAC LC-MS ATP acyl phosphate probe competition, recombinant DGK-HEK293T lysates; assay type: binding; settings: site DAGKa (K392); membrane fraction; ATP 1 mM; Ketanserin, Ritanserin 100 μM; RF001 1 mM
T1 construct: expressed in transfected cells; host or cells: SILAC HEK293T, membrane fraction
T1 sequence (P52429 1-567): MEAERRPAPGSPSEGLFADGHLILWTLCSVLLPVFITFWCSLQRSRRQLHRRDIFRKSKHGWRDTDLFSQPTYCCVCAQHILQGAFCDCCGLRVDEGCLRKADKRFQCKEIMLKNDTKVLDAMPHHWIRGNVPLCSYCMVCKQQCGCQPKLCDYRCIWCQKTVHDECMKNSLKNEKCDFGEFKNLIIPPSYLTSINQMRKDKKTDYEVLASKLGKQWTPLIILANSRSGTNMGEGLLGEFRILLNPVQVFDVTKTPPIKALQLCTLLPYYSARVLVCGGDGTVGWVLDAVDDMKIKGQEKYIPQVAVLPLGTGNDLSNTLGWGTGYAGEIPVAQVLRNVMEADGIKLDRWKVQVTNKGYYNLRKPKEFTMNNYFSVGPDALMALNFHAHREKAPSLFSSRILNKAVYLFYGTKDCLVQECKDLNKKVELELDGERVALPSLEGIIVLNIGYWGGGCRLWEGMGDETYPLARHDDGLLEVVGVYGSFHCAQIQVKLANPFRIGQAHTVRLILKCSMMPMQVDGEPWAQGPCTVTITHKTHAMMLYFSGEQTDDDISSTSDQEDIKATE
Text: Recombinant DGK proteins were produced by transient transfection of HEK293T cells with recombinant DNA. pDONR223-DGKK was a gift from William Hahn & David Root (Addgene plasmid #23487). pCSF107mT-GATEWAY-3′-FLAG was a gift from Todd Stukenberg (Addgene plasmid #67619). pCSF107mT-DGKK-FLAG construct was generated by recombination of the Addgene plasmids using the Gateway cloning system (Invitrogen). All other vectors were gifted to Dr. Kevin Lynch (University of Virginia, School of Medicine) by Dr. Kaoru Goto (Yamagata University, School of Medicine) and Dr. Fumio Sakane (Chiba University) and were kindly shared with us: pcDNA3-FLAG-DGKA (rat), pCMV-Tag2B-FLAG-DGKQ (human), pcDNA3-DGKE-3×Flag (human), and pCMV-SPORT6-HA-DGKZ (human). HEK293T cells were plated at a concentration of 400,000 cells in complete DMEM and grown to 50-60% confluency. A polyethyleneimine (PEI) stock solution was prepared (1 mg/mL, pH 7.4) and filter sterilized. Serum-free DMEM (600 μL) was mixed gently with 2.6 μg DNA and 20 μL of sterile PEI (1 mg/mL, pH 7.4) in a sterile microfuge tube. Mixtures were incubated for 30 min at 25° C. The mixture was then added drop-wise to each 10 cm^2 plate, rocked back and forth to mix, and placed back in the incubator. Cell pellets were harvested after two full days of growth, snap-frozen in liquid N2, and stored at −80° C. until use. Recombinant proteins were produced by transient transfection in SILAC HEK293T cells using the procedure described above, except that cells were plated at a concentration of 1×10^6 cells per 10 cm^2 plate and grown to ˜70% confluency prior to introducing transfection mixture.
Cell pellets were resuspended in kinase buffer (Dulbecco's PBS (DPBS, Hyclone), 20 mM MgCl2, EDTA-free protease inhibitors (Pierce)) and then lysed by sonication (3×1 sec pulse, 20% amplitude). The cell lysates were then subjected to centrifugation (100,000×g, 45 min at 4° C.) to isolate the cytosolic fraction in the supernatant and the membrane fraction as a pellet. […] Protein concentrations were measured using the Bio-Rad DC protein assay. […]

[2] = tested on: H1650 cells; assay: Cell Counts (Trypan Blue); assay type: cell-based; settings: 48 hrs; ritanserin 10 μM
Protocol: (§1) Cell Counts. Tumor cells were plated in 60 mm plates at a density of 100.000 cells/mL (A549. H1650) or 200,000 cells/mL (H82) and a volume of 3.5 mL/plate. Cells were treated with inhibitors at the indicated concentrations (final DMSO concentration of 0.5%) for 48 hrs at 37° C. under 5% CO2. After incubation, adherent cells were washed and detached with trypsin and all cells were collected and concentrated by spinning at 400×g for 3 min followed by aspiration of media. Cells were resuspended in […] Trypan Blue and 10 μL of this solution counted via a hemocytometer. Dead cells were excluded from all counts. Data were normalized to DMSO-treated wells and significance values determined with one-way ANOVA.

[3] = tested on: H82 cells; assay: Cell Counts (Trypan Blue); assay type: cell-based; settings: 48 hrs; ritanserin 10 μM
Protocol: as §1

[4] = tested on: A549 cells; assay: Cell Counts (Trypan Blue); assay type: cell-based; settings: 48 hrs; ritanserin 10 μM
Protocol: as §1

Compound	SILAC ratio, DGKE DAGKa probe-modified peptide [1]	cell killing (live cell counts) [2]	cell killing (live cell counts) [3]	cell killing (live cell counts) [4]
O=C(c1ccc(F)cc1)C1CCN(CCn2c(=O)[nH]c3ccccc3c2=O)CC1 [Ketanserin]	1.3	not ketanserin	not ketanserin	not ketanserin
Fc1ccc(C(=C2CCNCC2)c2ccc(F)cc2)cc1 [RF001, 4-(Bis(4-fluorophenyl)methylene) piperidine]	0.7	–	–	–
Cc1nc2sccn2c(=O)c1CCN1CCC(=C(c2ccc(F)cc2)c2ccc(F)cc2)CC1 [Ritanserin]	1.0	~70%	~70%	~70%
